Data published in PubChem BioAssay (NCI).
Values joined by “and” are separate entries in the source; they are usually repeats but may differ in a detail not shown here. Equal entries are not always repeated.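 Dose response: 5 concentrations. Exposure: 48 h. Format: 96-well plates. Endpoint: linear interpolation; highest concentration if not reached. Here, GI50 denotes the concentration required for 50% inhibition of growth. Definition used: TGI = concentration required for complete inhibition of growth.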

Columns and labels:
Assay in all cases: NCI tumour cell line growth inhibition, 48 h
786-0 renal = tested on: 786-0 renal
UACC-62 melanoma = tested on: UACC-62 melanoma
ACHN renal = tested on: ACHN renal
OVCAR-5 ovarian = tested on: OVCAR-5 ovarian
OVCAR-3 ovarian = tested on: OVCAR-3 ovarian
SK-MEL-2 melanoma = tested on: SK-MEL-2 melanoma
OVCAR-4 ovarian = tested on: OVCAR-4 ovarian
MDA-MB-231 breast = tested on: MDA-MB-231 breast
HS 578T breast = tested on: HS 578T breast
PC-3 prostate = tested on: PC-3 prostate

For `O=[N+]([O-])c1cccc(C2=NOC3CCCC23)c1` (configuration not stated), the TGI (786-0 renal) was greater than 100 µM, the TGI (UACC-62 melanoma) was greater than 100 µM and the TGI (ACHN renal) was greater than 100 µM. The TGI (OVCAR-5 ovarian) was greater than 100 µM, the TGI (OVCAR-3 ovarian) was greater than 100 µM and the TGI (SK-MEL-2 melanoma) was greater than 100 µM. For the same compound, the TGI (OVCAR-4 ovarian) was greater than 100 µM.

For `O=C(CO[N+](=O)[O-])OCC(=O)c1ccccc1`, the TGI (786-0 renal) was greater than 100 µM, the TGI (ACHN renal) was greater than 100 µM and the TGI (OVCAR-5 ovarian) was greater than 100 µM. The TGI (OVCAR-3 ovarian) was greater than 100 µM, the TGI (SK-MEL-2 melanoma) was greater than 100 µM and the TGI (OVCAR-4 ovarian) was greater than 100 µM.

Compound `COc1cccc(OC)c1/C=N\N1C(=O)c2ccccc2C1=O` has a TGI (786-0 renal) greater than 100 µM, a TGI (UACC-62 melanoma) greater than 100 µM and a TGI (ACHN renal) greater than 100 µM. For the same compound, the TGI (OVCAR-5 ovarian) was greater than 100 µM, the TGI (OVCAR-3 ovarian) was 44.1 µM and the TGI (SK-MEL-2 melanoma) was greater than 100 µM. The TGI (OVCAR-4 ovarian) was greater than 100 µM.

For `CCOC(=O)C1C(=O)C(=O)N2CCc3c([nH]c4ccccc34)C12` (configuration not stated), the TGI (786-0 renal) was greater than 100 µM, the TGI (UACC-62 melanoma) was greater than 100 µM and the TGI (OVCAR-5 ovarian) was greater than 100 µM. It also gave a TGI (OVCAR-3 ovarian) greater than 100 µM, a TGI (SK-MEL-2 melanoma) greater than 100 µM and a TGI (OVCAR-4 ovarian) greater than 100 µM.

In the case of `COc1cc(/C=C/C(=O)c2c(-c3ccc(Cl)cc3)nc3sc(C)nn23)cc(OC)c1OC`, the GI50 (786-0 renal) is reported as 51.2 µM, the TGI (786-0 renal) is reported as greater than 100 µM and the GI50 (MDA-MB-231 breast) is reported as 14.3 µM. The TGI (MDA-MB-231 breast) was greater than 100 µM, the GI50 (HS 578T breast) was 24.7 µM and the TGI (HS 578T breast) was greater than 100 µM. The GI50 (UACC-62 melanoma) was 5.15 µM, the TGI (UACC-62 melanoma) was greater than 100 µM and the GI50 (ACHN renal) was 20.8 µM. It also gave a TGI (ACHN renal) greater than 100 µM, a GI50 (OVCAR-5 ovarian) greater than 100 µM and a TGI (OVCAR-5 ovarian) greater than 100 µM. The GI50 (OVCAR-3 ovarian) was 35.7 µM, the TGI (OVCAR-3 ovarian) was greater than 100 µM and the GI50 (OVCAR-4 ovarian) was 31.8 µM. The TGI (OVCAR-4 ovarian) was greater than 100 µM.

Compound `NC1=NN(c2ccccc2)C(=O)C1/C(=N\NC(=O)c1cc2ccccc2cc1O)C(=O)Nc1ccc(Cl)cc1` (configuration not stated) has a TGI (786-0 renal) greater than 100 µM, a TGI (UACC-62 melanoma) of 66.2 µM and a TGI (ACHN renal) greater than 100 µM. For the same compound, the TGI (OVCAR-5 ovarian) was greater than 100 µM, the TGI (OVCAR-3 ovarian) was greater than 100 µM and the TGI (SK-MEL-2 melanoma) was greater than 100 µM. It also gave a TGI (OVCAR-4 ovarian) greater than 100 µM.

Work on `CC1=CC(=O)N2[C@H](OC[C@@H]2C(C)C)O1` yielded a TGI (786-0 renal) greater than 100 µM, a TGI (UACC-62 melanoma) greater than 100 µM and a TGI (ACHN renal) greater than 100 µM. The TGI (OVCAR-3 ovarian) was greater than 100 µM, the TGI (SK-MEL-2 melanoma) was greater than 100 µM and the TGI (OVCAR-4 ovarian) was greater than 100 µM.

`CC(C)=NO.CC(C)=NO.CC(C)=NO.CC(C)=NO.[Ti]` showed a GI50 (786-0 renal) greater than 100 µM, a TGI (786-0 renal) greater than 100 µM and a GI50 (UACC-62 melanoma) greater than 100 µM. The TGI (UACC-62 melanoma) was greater than 100 µM, the GI50 (ACHN renal) was greater than 100 µM and the TGI (ACHN renal) was greater than 100 µM. The GI50 (OVCAR-5 ovarian) was greater than 100 µM, the TGI (OVCAR-5 ovarian) was greater than 100 µM and the GI50 (OVCAR-3 ovarian) was greater than 100 µM. It also gave a TGI (OVCAR-3 ovarian) greater than 100 µM, a GI50 (SK-MEL-2 melanoma) greater than 100 µM and a TGI (SK-MEL-2 melanoma) greater than 100 µM. For the same compound, the GI50 (OVCAR-4 ovarian) was greater than 100 µM and the TGI (OVCAR-4 ovarian) was greater than 100 µM.

With `CCNC(=O)O/N=C1/C=C2CC[C@@H]3C(CC[C@@]4(C)C3CC[C@@H]4OC(=O)NCC)[C@@]2(C)CC1` (some centres not stated) the TGI (786-0 renal) was 10.7 µM, the TGI (UACC-62 melanoma) was 7.92 µM and the TGI (ACHN renal) was 11.6 µM. For the same compound, the TGI (OVCAR-5 ovarian) was 20 µM, the TGI (SK-MEL-2 melanoma) was 5.1 µM and the TGI (OVCAR-4 ovarian) was 6.39 µM.

For `O=[N+]([O-])C1(CO)COC(CCc2ccccc2)OC1` (configuration not stated), the TGI (786-0 renal) was greater than 100 µM, the TGI (UACC-62 melanoma) was greater than 100 µM and the TGI (ACHN renal) was greater than 100 µM. The TGI (OVCAR-5 ovarian) was greater than 100 µM, the TGI (OVCAR-3 ovarian) was greater than 100 µM and the TGI (SK-MEL-2 melanoma) was greater than 100 µM. The TGI (OVCAR-4 ovarian) was greater than 100 µM.

In the case of `CCOC(=O)NC/C=C/CO`, the TGI (786-0 renal) is reported as greater than 100 µM, the TGI (UACC-62 melanoma) is reported as greater than 100 µM and the TGI (ACHN renal) is reported as greater than 100 µM. For the same compound, the TGI (SK-MEL-2 melanoma) was greater than 100 µM and the TGI (OVCAR-4 ovarian) was greater than 100 µM.

`C=CCCC1(CCP(=O)(c2ccccc2)c2ccccc2)OCCO1` was tested, and the TGI (786-0 renal) was greater than 100 µM, the TGI (MDA-MB-231 breast) was greater than 100 µM and the TGI (PC-3 prostate) was greater than 100 µM. The TGI (HS 578T breast) was greater than 100 µM, the TGI (UACC-62 melanoma) was greater than 100 µM and the TGI (ACHN renal) was greater than 100 µM. For the same compound, the TGI (OVCAR-5 ovarian) was greater than 100 µM, the TGI (OVCAR-3 ovarian) was greater than 100 µM and the TGI (SK-MEL-2 melanoma) was greater than 100 µM.

`COC(=O)N/N=C(\c1nc2ccc(Cl)cc2[nH]c1=O)C(O)c1ccc([N+](=O)[O-])cc1` (configuration not stated) gave a TGI (786-0 renal) greater than 100 µM, a TGI (UACC-62 melanoma) greater than 100 µM and a TGI (OVCAR-5 ovarian) greater than 100 µM. For the same compound, the TGI (OVCAR-3 ovarian) was greater than 100 µM and the TGI (OVCAR-4 ovarian) was greater than 100 µM.

In the case of `Cc1c2cc[n+](C)cc2c(C)c2c1[nH]c1ccc(Oc3ccccc3)cc12`, the TGI (786-0 renal) is reported as greater than 64.3 µM, the TGI (UACC-62 melanoma) is reported as 7.5 µM and 7.54 µM and the TGI (ACHN renal) is reported as > 38.4 µM and 19 µM. For the same compound, the TGI (OVCAR-5 ovarian) was > 42 µM and 29.9 µM, the TGI (OVCAR-3 ovarian) was > 37.6 µM and 31.7 µM and the TGI (OVCAR-4 ovarian) was 36.5 µM and > 68.7 µM.

`O=C(Nc1ccccc1)Oc1ccccc1C1CCCCC1` showed a TGI (786-0 renal) of 53.2 µM, a TGI (UACC-62 melanoma) greater than 100 µM and a TGI (OVCAR-5 ovarian) greater than 100 µM. For the same compound, the TGI (OVCAR-3 ovarian) was 34.7 µM and the TGI (OVCAR-4 ovarian) was 37.3 µM.

In the case of `CCCCc1c2c(nc3c1CC/C(=C\c1ccccc1)C3=O)CCCC2`, the TGI (786-0 renal) is reported as 5.64 µM, the TGI (UACC-62 melanoma) is reported as 7.04 µM and the TGI (ACHN renal) is reported as 25.9 µM. It also gave a TGI (OVCAR-3 ovarian) of 10.4 µM.

Work on `O=C1COc2cc3c(cc2N1)SCC(=O)N3` yielded a TGI (786-0 renal) greater than 100 µM, a TGI (UACC-62 melanoma) greater than 100 µM and a TGI (OVCAR-3 ovarian) greater than 100 µM. For the same compound, the TGI (SK-MEL-2 melanoma) was greater than 100 µM and the TGI (OVCAR-4 ovarian) was greater than 100 µM.

Compound `CN(C)c1ccc(/C=C2\Cc3ccccc3C2=O)cc1Br` has a TGI (786-0 renal) greater than 100 µM, a TGI (UACC-62 melanoma) greater than 100 µM and a TGI (ACHN renal) greater than 100 µM. For the same compound, the TGI (OVCAR-5 ovarian) was greater than 100 µM, the TGI (OVCAR-3 ovarian) was greater than 100 µM and the TGI (SK-MEL-2 melanoma) was greater than 100 µM. It also gave a TGI (OVCAR-4 ovarian) greater than 100 µM.

`NC(=O)NC(=O)C1CCC(=O)N1S(=O)(=O)c1ccc(Cl)cc1` (configuration not stated) was tested, and the TGI (786-0 renal) was greater than 100 µM, the TGI (UACC-62 melanoma) was greater than 100 µM and the TGI (ACHN renal) was greater than 100 µM. For the same compound, the TGI (OVCAR-3 ovarian) was greater than 100 µM, the TGI (SK-MEL-2 melanoma) was greater than 100 µM and the TGI (OVCAR-4 ovarian) was greater than 100 µM.

In the case of `Cc1cc(C2(c3cc(C)c(O)c4ncccc34)OC(=O)c3ccccc32)c2cccnc2c1O`, the GI50 (786-0 renal) is reported as 0.114 µM, the TGI (786-0 renal) is reported as greater than 100 µM and the GI50 (MDA-MB-231 breast) is reported as 0.0215 µM. The TGI (MDA-MB-231 breast) was 22.7 µM, the GI50 (PC-3 prostate) was 0.0957 µM and the TGI (PC-3 prostate) was greater than 100 µM. The GI50 (UACC-62 melanoma) was 0.0209 µM, the TGI (UACC-62 melanoma) was 14.6 µM and the TGI (ACHN renal) was 1.17 µM and 1.45 µM. It also gave a TGI (OVCAR-5 ovarian) greater than 100 µM, a GI50 (SK-MEL-2 melanoma) of 0.117 µM and a TGI (SK-MEL-2 melanoma) greater than 100 µM. The TGI (OVCAR-4 ovarian) was greater than 100 µM.
